# Laboratory results taken from paper PMC5290327, “SC83288 is a clinical development candidate for the treatment of severe malaria” (Nature Communications, 2017).
# Columns and labels:
# Assay in all cases: KINOMEscan
# Format in all cases: binding
# Conditions in all cases: read-out: Remaining enzyme activity
# AKT1 = target: T1, AKT1 (Homo sapiens, UniProt P31749)
# T1 construct: purchased Ambit (DiscoverX) KINOMEscan; Cerep
# Experimental: (§1) The KINOMEscan was carried out by Ambit (San Diego, USA) according to a previously established protocol. The experiment was based on a competition binding assay that quantitatively measures the ability of a compound to compete with an immobilized, active-site directed ligand. The assay is performed by combining three components: DNA-tagged kinase; immobilized ligand; and a test compound. The ability of the test compound to compete with the immobilized ligand is measured via quantitative PCR of the DNA tag.
# (§2) For most assays, kinase-tagged T7 phage strains were grown in parallel in 24-well blocks in an Escherichia coli host derived from the BL21 strain. E. coli were grown to log-phase and infected with T7 phage from a frozen stock and incubated with shaking at 32 °C until lysis (90–150 min). The lysates were centrifuged (6,000g) and filtered (0.2 μm) to remove cell debris. The remaining kinases were produced in HEK-293 cells (Sigma Aldrich, catalogue number: 85120602) and subsequently tagged with DNA for quantitative PCR detection. […] The liganded beads were blocked with excess biotin and washed with blocking buffer (SeaBlock (Pierce), 1% bovine serum albumin, 0.05% Tween 20 and 1 mM dithiothreitol) to remove unbound ligand and to reduce non-specific phage binding. […] SC81458 was prepared as 40x stock in 100% DMSO and directly diluted into the assay to a final concentration of 10 μM. All reactions were performed in polypropylene 384-well plates in a final volume of 0.04 ml. […] The kinase concentration in the eluates was measured by quantitative PCR.
# BMX = target: T2, BMX (Homo sapiens, UniProt P51813)
# T2 construct: purchased Ambit (DiscoverX) KINOMEscan; Cerep
# Experimental: as §1, §2
# BRK = target: T3, BRK (Homo sapiens, UniProt Q13882)
# T3 construct: purchased Ambit (DiscoverX) KINOMEscan; Cerep
# Experimental: as §1, §2
# BRSK2 = target: T4, BRSK2 (Homo sapiens, UniProt Q8IWQ3)
# T4 construct: purchased Ambit (DiscoverX) KINOMEscan; Cerep
# Experimental: as §1, §2
# CAMK2a = target: T5, CAMK2a (Homo sapiens, UniProt Q9UQM7)
# T5 construct: purchased Ambit (DiscoverX) KINOMEscan; Cerep
# Experimental: as §1, §2
# CSK = target: T6, CSK (Homo sapiens, UniProt P41240)
# T6 construct: purchased Ambit (DiscoverX) KINOMEscan; Cerep
# Experimental: as §1, §2
# DCAMKL2 = target: T7, DCAMKL2 (Homo sapiens, UniProt Q8N568)
# T7 construct: purchased Ambit (DiscoverX) KINOMEscan; Cerep
# Experimental: as §1, §2
# EGFR(G719C) = target: T8, EGFR(G719C) (Homo sapiens, UniProt P00533, G719C)
# T8 construct: purchased Ambit (DiscoverX) KINOMEscan; Cerep
# Experimental: as §1, §2
# IKK-beta = target: T9, IKK-beta (Homo sapiens, UniProt O14920)
# T9 construct: purchased Ambit (DiscoverX) KINOMEscan; Cerep
# Experimental: as §1, §2
# IRAK1 = target: T10, IRAK1 (Homo sapiens, UniProt P51617)
# T10 construct: purchased Ambit (DiscoverX) KINOMEscan; Cerep
# Experimental: as §1, §2
# KIT(D816V) = target: T11, KIT(D816V) (Homo sapiens, UniProt P10721, D816V)
# T11 construct: purchased Ambit (DiscoverX) KINOMEscan; Cerep
# Experimental: as §1, §2
# KIT(V559D, V654A) = target: T12, KIT(V559D, V654A) (Homo sapiens, UniProt P10721, V559D/V654A)
# T12 construct: purchased Ambit (DiscoverX) KINOMEscan; Cerep
# Experimental: as §1, §2
# MARK1 = target: T13, MARK1 (Homo sapiens, UniProt Q9P0L2)
# T13 construct: purchased Ambit (DiscoverX) KINOMEscan; Cerep
# Experimental: as §1, §2
# MARK2 = target: T14, MARK2 (Homo sapiens, UniProt Q7KZI7)
# T14 construct: purchased Ambit (DiscoverX) KINOMEscan; Cerep
# Experimental: as §1, §2
# MYO3a = target: T15, MYO3a (Homo sapiens, UniProt Q8NEV4)
# T15 construct: purchased Ambit (DiscoverX) KINOMEscan; Cerep
# Experimental: as §1, §2
# PAK6 = target: T16, PAK6 (Homo sapiens, UniProt Q9NQU5)
# T16 construct: purchased Ambit (DiscoverX) KINOMEscan; Cerep
# Experimental: as §1, §2
# PIK3CA(C420R) = target: T17, PIK3CA(C420R) (Homo sapiens, UniProt P42336, C420R)
# T17 construct: purchased Ambit (DiscoverX) KINOMEscan; Cerep
# Experimental: as §1, §2
# PIK3CA(Q546K) = target: T18, PIK3CA(Q546K) (Homo sapiens, UniProt P42336, Q546K)
# T18 construct: purchased Ambit (DiscoverX) KINOMEscan; Cerep
# Experimental: as §1, §2
# PIK3Cd = target: T19, PIK3Cd (Homo sapiens, UniProt O00329)
# T19 construct: purchased Ambit (DiscoverX) KINOMEscan; Cerep
# Experimental: as §1, §2
# PIK4Cb = target: T20, PIK4Cb (Homo sapiens, UniProt Q9UBF8)
# T20 construct: purchased Ambit (DiscoverX) KINOMEscan; Cerep
# Experimental: as §1, §2
# PIP5K1a = target: T21, PIP5K1a (Homo sapiens, UniProt Q99755)
# T21 construct: purchased Ambit (DiscoverX) KINOMEscan; Cerep
# Experimental: as §1, §2
# PKMYT1 = target: T22, PKMYT1 (Homo sapiens, UniProt Q99640)
# T22 construct: purchased Ambit (DiscoverX) KINOMEscan; Cerep
# Experimental: as §1, §2
# PLK3 = target: T23, PLK3 (Homo sapiens, UniProt Q9H4B4)
# T23 construct: purchased Ambit (DiscoverX) KINOMEscan; Cerep
# Experimental: as §1, §2
# PRKX = target: T24, PRKX (Homo sapiens, UniProt P51817)
# T24 construct: purchased Ambit (DiscoverX) KINOMEscan; Cerep
# Experimental: as §1, §2
# PYK2 = target: T25, PYK2 (Homo sapiens, UniProt Q14289)
# T25 construct: purchased Ambit (DiscoverX) KINOMEscan; Cerep
# Experimental: as §1, §2
# ROCK1 = target: T26, ROCK1 (Homo sapiens, UniProt Q13464)
# T26 construct: purchased Ambit (DiscoverX) KINOMEscan; Cerep
# Experimental: as §1, §2
# ROCK2 = target: T27, ROCK2 (Homo sapiens, UniProt O75116)
# T27 construct: purchased Ambit (DiscoverX) KINOMEscan; Cerep
# Experimental: as §1, §2
# [1] = target: T28, RPS6KA4(Kin.Dom.2-C-term) (Homo sapiens, UniProt O75676)
# T28 construct: RPS6KA4(Kin.Dom.2-C-term); purchased Ambit (DiscoverX) KINOMEscan; Cerep
# Experimental: as §1, §2
# SBK1 = target: T29, SBK1 (Homo sapiens, UniProt Q52WX2)
# T29 construct: purchased Ambit (DiscoverX) KINOMEscan; Cerep
# Experimental: as §1, §2
# SRMS = target: T30, SRMS (Homo sapiens, UniProt Q9H3Y6)
# T30 construct: purchased Ambit (DiscoverX) KINOMEscan; Cerep
# Experimental: as §1, §2
# SRPK1 = target: T31, SRPK1 (Homo sapiens, UniProt Q96SB4)
# T31 construct: purchased Ambit (DiscoverX) KINOMEscan; Cerep
# Experimental: as §1, §2
# STK35 = target: T32, STK35 (Homo sapiens, UniProt Q8TDR2)
# T32 construct: purchased Ambit (DiscoverX) KINOMEscan; Cerep
# Experimental: as §1, §2
# TYRO3 = target: T33, TYRO3 (Homo sapiens, UniProt Q06418)
# T33 construct: purchased Ambit (DiscoverX) KINOMEscan; Cerep
# Experimental: as §1, §2
# T2 sequence (P51813 whole entry): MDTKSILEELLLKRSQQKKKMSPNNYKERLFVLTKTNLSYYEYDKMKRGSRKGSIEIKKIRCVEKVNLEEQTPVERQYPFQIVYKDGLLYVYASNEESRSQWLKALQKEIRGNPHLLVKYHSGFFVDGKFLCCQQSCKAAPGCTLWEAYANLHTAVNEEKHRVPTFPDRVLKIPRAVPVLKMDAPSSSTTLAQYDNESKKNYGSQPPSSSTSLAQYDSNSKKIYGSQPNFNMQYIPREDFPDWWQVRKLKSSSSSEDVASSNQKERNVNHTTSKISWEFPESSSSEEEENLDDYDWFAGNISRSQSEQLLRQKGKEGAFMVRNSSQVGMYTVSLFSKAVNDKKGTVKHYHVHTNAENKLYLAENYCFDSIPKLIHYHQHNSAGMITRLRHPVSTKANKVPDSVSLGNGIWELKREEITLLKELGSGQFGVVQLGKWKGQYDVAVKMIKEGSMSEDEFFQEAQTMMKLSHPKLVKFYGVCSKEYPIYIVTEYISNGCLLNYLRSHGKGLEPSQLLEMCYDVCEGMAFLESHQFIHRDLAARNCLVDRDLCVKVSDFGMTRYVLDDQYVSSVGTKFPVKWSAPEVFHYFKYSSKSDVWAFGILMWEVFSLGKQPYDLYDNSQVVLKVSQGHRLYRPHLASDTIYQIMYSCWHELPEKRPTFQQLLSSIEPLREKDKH
# T31 sequence (Q96SB4 whole entry): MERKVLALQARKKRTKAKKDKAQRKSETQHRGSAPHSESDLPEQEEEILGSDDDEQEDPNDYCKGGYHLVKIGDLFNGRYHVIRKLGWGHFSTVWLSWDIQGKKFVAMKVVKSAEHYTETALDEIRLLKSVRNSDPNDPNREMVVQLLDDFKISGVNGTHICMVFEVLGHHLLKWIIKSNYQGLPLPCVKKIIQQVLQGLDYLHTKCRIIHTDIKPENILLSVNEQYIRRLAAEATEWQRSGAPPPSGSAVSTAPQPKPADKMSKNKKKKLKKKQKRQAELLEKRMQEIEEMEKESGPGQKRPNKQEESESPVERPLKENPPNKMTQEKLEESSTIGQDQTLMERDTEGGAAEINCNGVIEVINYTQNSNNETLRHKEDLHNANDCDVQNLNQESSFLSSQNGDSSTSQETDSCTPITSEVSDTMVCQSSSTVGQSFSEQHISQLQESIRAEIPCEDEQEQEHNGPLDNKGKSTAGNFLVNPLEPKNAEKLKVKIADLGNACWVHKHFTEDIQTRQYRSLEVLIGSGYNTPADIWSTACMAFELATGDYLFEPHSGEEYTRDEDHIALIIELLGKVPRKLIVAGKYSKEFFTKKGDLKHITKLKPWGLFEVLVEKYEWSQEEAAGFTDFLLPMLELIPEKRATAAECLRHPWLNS
# T30 sequence (Q9H3Y6 whole entry): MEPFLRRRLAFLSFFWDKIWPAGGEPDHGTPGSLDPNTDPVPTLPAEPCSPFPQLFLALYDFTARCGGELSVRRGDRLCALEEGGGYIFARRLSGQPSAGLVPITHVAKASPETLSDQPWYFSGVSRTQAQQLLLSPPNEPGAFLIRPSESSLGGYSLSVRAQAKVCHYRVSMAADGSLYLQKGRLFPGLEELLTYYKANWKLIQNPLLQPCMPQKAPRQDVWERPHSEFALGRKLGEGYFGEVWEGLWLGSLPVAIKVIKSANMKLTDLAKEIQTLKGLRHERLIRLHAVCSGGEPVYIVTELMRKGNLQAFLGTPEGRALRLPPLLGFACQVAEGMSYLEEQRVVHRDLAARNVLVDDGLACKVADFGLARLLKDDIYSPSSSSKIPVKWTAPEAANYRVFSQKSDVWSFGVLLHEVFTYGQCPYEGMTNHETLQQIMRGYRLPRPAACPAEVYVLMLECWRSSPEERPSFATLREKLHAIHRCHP
# T1 sequence (P31749 whole entry): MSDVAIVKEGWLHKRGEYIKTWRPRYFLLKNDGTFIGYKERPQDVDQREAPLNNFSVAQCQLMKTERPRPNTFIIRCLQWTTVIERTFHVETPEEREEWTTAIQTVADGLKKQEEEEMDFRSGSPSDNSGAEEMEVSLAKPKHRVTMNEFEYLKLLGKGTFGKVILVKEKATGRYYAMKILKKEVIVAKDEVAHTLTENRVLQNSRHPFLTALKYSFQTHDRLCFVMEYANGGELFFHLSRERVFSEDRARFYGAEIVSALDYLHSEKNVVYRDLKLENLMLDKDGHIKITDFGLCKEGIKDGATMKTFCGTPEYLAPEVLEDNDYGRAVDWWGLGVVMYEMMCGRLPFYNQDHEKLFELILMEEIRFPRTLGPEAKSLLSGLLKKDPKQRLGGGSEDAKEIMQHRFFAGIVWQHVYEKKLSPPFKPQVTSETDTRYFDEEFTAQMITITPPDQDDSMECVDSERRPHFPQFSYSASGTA
# T16 sequence (Q9NQU5 whole entry): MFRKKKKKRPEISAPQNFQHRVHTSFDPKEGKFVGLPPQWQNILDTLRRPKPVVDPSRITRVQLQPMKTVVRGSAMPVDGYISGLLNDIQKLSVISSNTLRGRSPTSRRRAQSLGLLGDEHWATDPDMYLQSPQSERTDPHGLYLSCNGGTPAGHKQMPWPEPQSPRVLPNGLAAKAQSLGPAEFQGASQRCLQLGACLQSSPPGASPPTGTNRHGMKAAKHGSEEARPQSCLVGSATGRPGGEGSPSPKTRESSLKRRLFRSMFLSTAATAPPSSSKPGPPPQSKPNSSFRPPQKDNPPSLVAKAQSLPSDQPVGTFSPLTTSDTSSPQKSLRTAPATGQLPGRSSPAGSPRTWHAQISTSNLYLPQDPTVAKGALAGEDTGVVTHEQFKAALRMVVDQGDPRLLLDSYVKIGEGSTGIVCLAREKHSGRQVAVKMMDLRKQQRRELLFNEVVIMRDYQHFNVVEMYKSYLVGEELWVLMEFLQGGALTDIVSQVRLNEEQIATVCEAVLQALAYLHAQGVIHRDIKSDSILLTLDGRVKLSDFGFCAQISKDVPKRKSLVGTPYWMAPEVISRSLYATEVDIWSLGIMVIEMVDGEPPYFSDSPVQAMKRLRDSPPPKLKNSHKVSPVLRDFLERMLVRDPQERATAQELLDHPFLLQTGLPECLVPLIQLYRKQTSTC
# T28 sequence (O75676 411-674 limits assumed): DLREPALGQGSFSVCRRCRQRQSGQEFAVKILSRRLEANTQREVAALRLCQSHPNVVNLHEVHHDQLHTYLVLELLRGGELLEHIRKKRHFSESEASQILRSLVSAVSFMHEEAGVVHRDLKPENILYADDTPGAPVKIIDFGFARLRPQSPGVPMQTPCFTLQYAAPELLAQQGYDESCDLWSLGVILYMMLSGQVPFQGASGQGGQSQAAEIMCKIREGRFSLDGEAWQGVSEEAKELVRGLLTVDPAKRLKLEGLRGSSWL
# T22 sequence (Q99640 whole entry): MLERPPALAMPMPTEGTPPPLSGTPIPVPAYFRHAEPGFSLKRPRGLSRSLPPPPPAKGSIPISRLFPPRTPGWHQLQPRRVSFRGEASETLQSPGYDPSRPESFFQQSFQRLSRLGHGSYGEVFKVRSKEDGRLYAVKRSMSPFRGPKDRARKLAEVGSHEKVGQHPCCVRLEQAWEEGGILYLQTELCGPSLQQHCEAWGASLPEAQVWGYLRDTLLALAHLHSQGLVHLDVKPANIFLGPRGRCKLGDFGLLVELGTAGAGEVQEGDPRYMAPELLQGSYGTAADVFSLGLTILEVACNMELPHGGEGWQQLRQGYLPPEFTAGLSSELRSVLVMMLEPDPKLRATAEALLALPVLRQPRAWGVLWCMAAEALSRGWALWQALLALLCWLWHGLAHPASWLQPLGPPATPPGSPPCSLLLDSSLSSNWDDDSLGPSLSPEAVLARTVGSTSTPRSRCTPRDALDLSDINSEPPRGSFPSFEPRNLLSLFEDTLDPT
# T29 sequence (Q52WX2 whole entry): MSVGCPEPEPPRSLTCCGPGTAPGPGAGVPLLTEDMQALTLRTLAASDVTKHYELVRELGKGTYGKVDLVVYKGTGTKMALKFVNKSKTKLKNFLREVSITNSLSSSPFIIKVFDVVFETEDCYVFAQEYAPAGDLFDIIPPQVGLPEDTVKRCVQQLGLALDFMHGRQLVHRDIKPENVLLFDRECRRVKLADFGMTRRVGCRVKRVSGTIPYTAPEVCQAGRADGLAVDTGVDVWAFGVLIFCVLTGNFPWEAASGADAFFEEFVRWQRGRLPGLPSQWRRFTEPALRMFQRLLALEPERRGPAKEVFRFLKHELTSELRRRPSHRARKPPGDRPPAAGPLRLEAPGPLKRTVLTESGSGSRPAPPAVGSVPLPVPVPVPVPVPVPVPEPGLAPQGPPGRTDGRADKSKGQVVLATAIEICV
# T3 sequence (Q13882 whole entry): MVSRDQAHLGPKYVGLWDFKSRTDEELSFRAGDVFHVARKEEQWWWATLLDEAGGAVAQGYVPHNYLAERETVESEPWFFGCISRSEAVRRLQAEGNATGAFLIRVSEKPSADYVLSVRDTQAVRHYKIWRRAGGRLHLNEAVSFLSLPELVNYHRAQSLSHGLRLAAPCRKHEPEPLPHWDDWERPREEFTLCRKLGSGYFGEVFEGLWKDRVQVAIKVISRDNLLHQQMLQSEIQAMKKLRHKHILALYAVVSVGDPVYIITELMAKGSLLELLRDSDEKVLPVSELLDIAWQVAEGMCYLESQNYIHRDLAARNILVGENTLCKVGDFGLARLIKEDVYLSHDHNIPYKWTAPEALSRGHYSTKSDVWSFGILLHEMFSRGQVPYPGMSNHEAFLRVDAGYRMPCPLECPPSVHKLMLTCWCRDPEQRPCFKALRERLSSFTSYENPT
# T24 sequence (P51817 whole entry): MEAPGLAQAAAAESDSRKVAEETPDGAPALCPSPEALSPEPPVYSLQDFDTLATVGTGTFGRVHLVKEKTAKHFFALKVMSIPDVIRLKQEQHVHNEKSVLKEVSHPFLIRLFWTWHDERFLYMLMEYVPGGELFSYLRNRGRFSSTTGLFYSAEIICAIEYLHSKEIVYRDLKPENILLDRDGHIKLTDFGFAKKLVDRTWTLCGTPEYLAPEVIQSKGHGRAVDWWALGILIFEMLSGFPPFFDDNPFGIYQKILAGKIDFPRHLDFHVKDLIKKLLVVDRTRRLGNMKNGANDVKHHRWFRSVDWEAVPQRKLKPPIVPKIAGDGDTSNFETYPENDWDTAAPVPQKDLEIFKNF
structure (smiles),measurement,setting,value
"CCCCN1CCN(C(=N)c2cccc(NC(=O)Nc3ccc(S(=O)(=O)NCc4ccc(S(N)(=O)=O)cc4)cc3)c2)CC1 [SC81458, 4-(3-(3-((4-butylpiperazin-1-yl)(imino)methyl)phenyl)ureido)-N-(4-sulfamoylbenzyl) benzenesulfonamide]",remaining binding at 10 µM,AKT1,87%
same,remaining binding at 10 µM,BMX,100%
same,remaining binding at 10 µM,BRK,100%
same,remaining binding at 10 µM,BRSK2,100%
same,remaining binding at 10 µM,CAMK2a,100%
same,remaining binding at 10 µM,CSK,100%
same,remaining binding at 10 µM,DCAMKL2,100%
same,remaining binding at 10 µM,EGFR(G719C),80%
same,remaining binding at 10 µM,IKK-beta,100%
same,remaining binding at 10 µM,IRAK1,95%
same,remaining binding at 10 µM,KIT(D816V),100%
same,remaining binding at 10 µM,"KIT(V559D, V654A)",100%
same,remaining binding at 10 µM,MARK1,100%
same,remaining binding at 10 µM,MARK2,100%
same,remaining binding at 10 µM,MYO3a,100%
same,remaining binding at 10 µM,PAK6,95%
same,remaining binding at 10 µM,PIK3CA(C420R),100%
same,remaining binding at 10 µM,PIK3CA(Q546K),100%
same,remaining binding at 10 µM,PIK3Cd,73%
same,remaining binding at 10 µM,PIK4Cb,100%
same,remaining binding at 10 µM,PIP5K1a,100%
same,remaining binding at 10 µM,PKMYT1,90%
same,remaining binding at 10 µM,PLK3,75%
same,remaining binding at 10 µM,PRKX,72%
same,remaining binding at 10 µM,PYK2,98%
same,remaining binding at 10 µM,ROCK1,100%
same,remaining binding at 10 µM,ROCK2,76%
same,remaining binding at 10 µM,[1],92%
same,remaining binding at 10 µM,SBK1,72%
same,remaining binding at 10 µM,SRMS,79%
same,remaining binding at 10 µM,SRPK1,100%
same,remaining binding at 10 µM,STK35,87%
same,remaining binding at 10 µM,TYRO3,79%
